What was measured:
[1] = tested on: ^3 H-flunitrazepam binding sites (benzodiazepine receptors BZ-1 and BZ-2) in rat cortex; assay: ^3 H-flunitrazepam competition binding, rat cortex; details: for difference in binding affinity for two BZ receptors (BZ-1 and BZ-2): vs ^3 H-flunitrazepam, average; for populations of binding sites distinguished: unlabeled drug vs ^3 H-flunitrazepam
Method: (§1) Male Spraque-Sawley rats (200 to 250 gms) from Charles River Breeding Laboratories, Mass., were used to obtain brain tissue. Animals were decapitated and their brains removed. Synaptic membranes were obtained following the procedure disclosed in Life Sc., 35, 105 (1984). Cerebral cortex and cerebellum were dissected on ice and homogenized in 20 volumes of ice cold 0.32 M sucrose using a glass homogenizer fitted with a teflon pestle. The homogenates were then centrifuged at 48,000 X g for 10 min, and the resultant P2 pellets were washed twice by re-centrifugation in 50 mM Na/K phosphate buffered saline (pH 7.4). The washed pellets were pooled and then resuspended in the same buffer to a final concentration of 50 mg of original tissue weight/ml.
(§2) Total reaction mixture volume was 1 ml which included: (a) 100 μl of either ^3 H-flunitrazepam or ^3 H-2-oxo-quazepam (tritiated at the α-carbon of the trifluoroethyl substituent located at the #1 position), yielding a final concentration of 0.5 nM (b) 100 μl of various concentrations of competing drugs dissolved or suspended in 50 mM phosphate buffered saline (pH 7.4) containing 4 mg/ml methylcellulose (c) 800 μl of tissue homogenate diluted such that a total of 5 mg of tissue was present in the final reaction mixture. In each competition experiment 25 to 30 concentrations of drug were used to obtain a complete dose response curve.
(§3) Incubations were carried out at 0° C. for 90 minutes. Samples were then filtered under vacuum through 25 mm diameter Whatman GF/B filters on a Millipore 1225 Sampling Manifold and quickly washed with 3×5 ml of ice-cold PBS buffer. Filter-bound radioactivity was quantified through liquid scintillation counting following overnight solubilization of the receptor-radioligand complex in "Scintosol" scintillation cocktail (Isolab, Inc.).
(§4) Compound assisted curve fitting was conducted on an Apple IIe computer using a program described in Br. J. Pharmacol., 80, 582P (1983) and Trends in Pharmaceutical Sci., 5, 47, (1984). Enhancements were made to the program to allow disk storage of data and printing of the program to allow disk storage of data and printing of the graphics display. The program determines whether the results from individual competition experiments are best interpreted on the basis of a 1 or 2 site model and also provides the most probable proportions of radioligand bound to each of the sites.
(§5) Selection among models was made by comparing the sum of squares residual values for the best single and 2-site models and determining through a partial F-test evaluation whether 2-site modelling produced a statistically meaningful (P<0.05) improvement in fit as described in Anal. Biochem., 107, 220 (1980). If not, the best single site model was considered the model of choice.

[2] = molecular target: T1, ^3 H-flunitrazepam binding sites in rat cerebellum (BZ-1) (Rattus norvegicus, UniProt P18508+P62813); assay: ^3 H-flunitrazepam competition binding, rat cerebellum
T1 construct: Cerebral cortex and cerebellum were dissected on ice and homogenized; tissue Charles River Breeding Laboratories (rats); host or cells: rat cerebellum synaptic membranes (washed P2 pellet)
Method: as §1, with “weight/ml. […]” for “weight/ml.”
Incubations were carried out at 0° C. for 90 minutes. […] Filter-bound radioactivity was quantified through liquid scintillation counting following overnight solubilization of the receptor-radioligand complex in "Scintosol" scintillation cocktail (Isolab, Inc.). […]

[3] = molecular target: T2, ^3 H-2-oxo-quazepam binding sites (BZ-1 receptors) in rat cortex (Rattus norvegicus, UniProt P18508+P62813); assay: ^3 H-2-oxo-quazepam competition binding, rat cortex; details: for best-fit curve model: vs ^3 H-2-oxo-quazepam 0.5 nM
T2 construct: Cerebral cortex and cerebellum were dissected on ice and homogenized; tissue Charles River Breeding Laboratories (rats); host or cells: rat cerebral cortex synaptic membranes (washed P2 pellet)
Method: as §1, §2, §3, §4, §5

[4] = molecular target: T3, ^3 H-2-oxo-quazepam binding sites (BZ-1 receptors) in cerebellum (Rattus norvegicus, UniProt P18508+P62813); assay: ^3 H-2-oxo-quazepam competition binding, cerebellum
T3 construct: Cerebral cortex and cerebellum were dissected on ice and homogenized; tissue Charles River Breeding Laboratories (rats); host or cells: rat cerebellum synaptic membranes (washed P2 pellet)
Method: as §1, §2, §3
Compound assisted curve fitting was conducted on an Apple IIe computer using a program described in Br. J. Pharmacol., 80, 582P (1983) and Trends in Pharmaceutical Sci., 5, 47, (1984). […]

[5] = molecular target: benzodiazepine sites (BZ-1 receptors) in rat cortex (Rattus norvegicus, UniProt P18508+P62813); assay: Saturation binding of ^3 H-2-oxo-quazepam in rat cortex; details: for non-specific binding: 0.5 nM
Method: as §1
Saturation binding studies were conducted utilizing ^3 H-2-oxo-quazepamin rat cortex over a range of concentrations from 0.1 to 30 nM. The separation between specific and non-specific binding indicated the suitability of ^3 H-2-oxo-quazepam as a radioligand for benzodiazepine sites. Specific binding was defined as the difference between total binding and binding in the presence of 100 nM unlabeled clonazepam. At a concentration of 0.5 nM, non-specific binding for the radioligand constituted only 5 to 10 percent of total binding.

[6] = tested on: benzodiazepine (BZ) receptors in brain; details: literature; cited from earlier work
[7] = doses far above tranquilizing doses; cited from earlier work
[8] = cats; doses below those that caused ataxia; cited from earlier work

O=C1CN=C(c2ccccc2F)c2cc(Cl)ccc2N1CC(F)(F)F [2-oxo-quazepam, 7-chloro-1-(2,2,2-trifluoroethyl)-5-(2-fluorophenyl)-1,3-dihydro-2H-1,4 benzodiazepine-2-one]
relative proportion of ^3 H-flunitrazepam binding sites, first-named subpopulation ([1]; rat cortex): 55%
relative proportion of ^3 H-flunitrazepam binding sites, second-named subpopulation ([1]; rat cortex): 45%
difference in binding affinity for two BZ receptors (BZ-1 and BZ-2) ([1]; rat cortex): 22 fold
populations of binding sites distinguished ([1]; rat cortex): distinguished two subpopulations
IC50 ([1]; vs ^3 H-flunitrazepam 0.5 nM, cortex, 0° C., 90 minutes, read-out: IC50, high affinity component): 0.0093 µM
IC50 [2]: 0.0088 µM
populations of binding sites distinguished ([2]; vs ^3 H-flunitrazepam, cerebellum): did not distinguish subpopulations of binding sites
IC50 [3]: 0.0168 µM
relative potency vs quazepam ([3]; cortex, vs ^3 H-2-oxo-quazepam): 6 times
BZ-1 selectivity of binding ([3]; low concentrations (0.5 nM)): binds BZ-1 receptors almost exclusively
best-fit curve model [3]: single site curve fitting model
potency in cortex compared with cerebellum ([3]; vs ^3 H-2-oxo-quazepam, cortex and cerebellum): roughly equipotent
IC50 [4]: 0.0136 µM
relative potency vs quazepam ([4]; cerebellum, vs ^3 H-2-oxo-quazepam): 19 times
non-specific binding [5]: < 5%
subpopulations of BZ receptors distinguished [6]: distinguish two subpopulations of benzodiazepine (BZ) receptors

[3H]C([3H])(N1C(=O)CN=C(c2ccccc2F)c2cc(Cl)ccc21)C(F)(F)F [^3 H-2-oxo-quazepam, 7-Chloro-1-^3 H-(2,2,2-Trifluoroethyl)-5-(2-Fluorophenyl)-1,3-Dihydro-2H-1,4 Benzodiazepine-2-One]
non-specific binding [5]: 5 to 10%
non-specific binding vs concentration ([5]; 0.1 to 30 nM, even after saturation of BZ-1 receptors): linear relationship with increasing concentration

CN1C(=O)CN=C(c2ccccc2F)c2cc([N+](=O)[O-])ccc21 [flunitrazepam, reference compound]
receptor subtype specificity of binding ([1]; benzodiazepine receptors): binds non-specifically to benzodiazepine receptors
populations of binding sites distinguished ([1]; rat cortex): only a single uniform population of sites

O=C1CN=C(c2ccccc2)c2cc(Cl)ccc2N1CC(F)(F)F [halazepam]
ataxic effects [7]: only weak ataxic effects

Fc1ccccc1C1=NCC(=S)N(CC(F)(F)F)c2ccc(Cl)cc21 [quazepam, 7-chloro-1-(2,2,2-trifluorethyl)-5-(2-fluorophenyl)-1,3-dihydro-2H-1,4 benzodiazpeine-2-thione, reference compound]
difference in binding affinity for two BZ receptors (BZ-1 and BZ-2) ([1]; rat cortex): 54 fold
populations of binding sites distinguished ([1]; rat cortex): distinguished two subpopulations
IC50 [3]: 0.101 µM
best-fit curve model [3]: single site curve fitting model
IC50 [4]: 0.258 µM
behavioural effect [8]: only drowsiness and sleep
